Results from the supplement of paper PMC10627819.

Experiments:
[1] = test system: B. subtilis 168; assay: fitness (endpoint OD595 vs no drug) (fraction); higher = more growth
In short: (§1)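 Bacterial growth was followed in 384-well plates seeded at OD595 0.01, with 30 µl per well, or 55 µl for S. pneumoniae, in TSB, LB Lennox or CY at 37 °C. OD595 was read every 30 min for 14 h, and each reading had the first reading subtracted as background. Fitness is the background-corrected optical density at entry into stationary phase divided by the robust mean of the no-drug control wells. This ratio is capped at 1.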

[2] = test system: S. aureus DSM 20231; assay: as above
In short: as §1

[3] = test system: S. aureus Newman; assay: as above
In short: as §1

[4] = test system: S. pneumoniae D39V; assay: as above
In short: as §1

[5] = test system: B. subtilis 168; assay: Bliss interaction score (quartile over a dose matrix) (fitness difference); higher = more antagonism (negative = synergy)
In short: (§2)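 Combination data were used to infer fitness under each single drug. Fitness is the OD595 at entry into stationary phase divided by the robust mean of the plate's no-drug wells, with a cap of 1. The Bliss score is the observed minus the expected product fitness, summarised by quartiles over technical, biological and donor/recipient replicates.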

[6] = test system: S. aureus DSM 20231; assay: as above
In short: as §2

[7] = test system: S. aureus Newman; assay: as above
In short: as §2

[8] = test system: S. pneumoniae D39V; assay: as above
In short: as §2
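Throughout, for Bliss interaction score (quartile over a dose matrix): first quartile when negative (synergy) and third quartile when positive (antagonism).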

Cc1onc(-c2ccccc2)c1C(=O)N[C@@H]1C(=O)N2[C@@H]1SC(C)(C)[C@@H]2C(=O)O [Oxacillin] + Cc1cc(NS(=O)(=O)c2ccc(N)cc2)no1 [Sulfamethoxazol]
fitness
Conditions	partner 1 µg/mL	partner 2 µg/mL	partner 4 µg/mL
[1], first compound 0.002 µg/mL	0.996	0.968	≥ 1
[1], first compound 0.004 µg/mL	0.988	0.947	0.984
[1], first compound 0.008 µg/mL	0.93	0.929	0.915
[2], first compound 0.0156 µg/mL	0.795	0.865	0.866
[2], first compound 0.0312 µg/mL	0.636	0.65	0.719
[2], first compound 0.0625 µg/mL	0.469	0.462	0.485
[3], first compound 0.0156 µg/mL	0.748	0.686	–
[3], first compound 0.0312 µg/mL	0.758	0.688	–
[3], first compound 0.0625 µg/mL	0.63	0.624	0.556
[4], first compound 0.01 µg/mL	0.954	0.961	0.966
[4], first compound 0.02 µg/mL	0.888	0.904	0.915
[4], first compound 0.04 µg/mL	0.273	0.32	0.395

one replicate
Conditions	fitness
[1], first compound 0.0078 µg/mL, partner 0.5 µg/mL	0.943
[1], first compound 0.0078 µg/mL, partner 1 µg/mL	0.864
[1], first compound 0.0078 µg/mL, partner 2 µg/mL	0.896
[1], first compound 0.0155 µg/mL, partner 0.5 µg/mL	0.997
[1], first compound 0.0155 µg/mL, partner 1 µg/mL	0.755
[1], first compound 0.0155 µg/mL, partner 2 µg/mL	0.877
[1], first compound 0.031 µg/mL, partner 0.5 µg/mL	0.921
[1], first compound 0.031 µg/mL, partner 1 µg/mL	0.9
[1], first compound 0.031 µg/mL, partner 2 µg/mL	0.866
[1], first compound 0.075 µg/mL, partner 1 µg/mL	0.49
[1], first compound 0.075 µg/mL, partner 2 µg/mL	0.454
[1], first compound 0.075 µg/mL, partner 4 µg/mL	0.529
[1], first compound 0.15 µg/mL, partner 1 µg/mL	0.0391
[1], first compound 0.15 µg/mL, partner 2 µg/mL	0.0283
[1], first compound 0.15 µg/mL, partner 4 µg/mL	0.0224
[1], first compound 0.3 µg/mL, partner 1 µg/mL	0.0079
[1], first compound 0.3 µg/mL, partner 2 µg/mL	0.0431
[1], first compound 0.3 µg/mL, partner 4 µg/mL	0.0098
[3], first compound 0.0156 µg/mL, partner 8 µg/mL	0.9
[3], first compound 0.0312 µg/mL, partner 8 µg/mL	0.845
[3], first compound 0.0625 µg/mL, partner 8 µg/mL	0.783

Conditions	Bliss interaction score
[5]	0.0542
[6]	-0.0464
[7]	-0.0519
[8]	0.0796

C[n+]1ccc(-c2cc[n+](C)cc2)cc1 [Paraquat] + CC1=C\[C@@H](O)CC(=O)Cc2nc(co2)C(=O)N2CCC=C2C(=O)O[C@H](C(C)C)[C@H](C)/C=C/C(=O)NC\C=C\1 [Virginiamycin M1]
fitness
Conditions	first compound 1.25 µg/mL	first compound 1.5 µg/mL	first compound 2.5 µg/mL	first compound 3 µg/mL	first compound 5 µg/mL	first compound 6 µg/mL
[1], partner 0.0625 µg/mL	0.951	–	0.934	–	0.819	–
[1], partner 0.125 µg/mL	0.918	–	0.934	–	0.856	–
[1], partner 0.25 µg/mL	0.93	–	0.95	–	0.893	–
[2], partner 0.0625 µg/mL	0.912	–	0.897	–	0.872	–
[2], partner 0.125 µg/mL	0.967	–	0.981	–	0.936	–
[2], partner 0.25 µg/mL	0.935	–	0.882	–	0.934	–
[4], partner 0.5 µg/mL	–	0.987	–	0.988	–	0.991
[4], partner 1 µg/mL	–	0.991	–	0.978	–	0.967
[4], partner 2 µg/mL	–	0.937	–	0.93	–	0.897

fitness, one replicate
Conditions	first compound 1.25 µg/mL	first compound 1.5 µg/mL	first compound 2.5 µg/mL	first compound 3 µg/mL	first compound 5 µg/mL	first compound 6 µg/mL
[2], partner 0.5 µg/mL	0.831	–	0.901	–	0.858	–
[2], partner 1 µg/mL	0.781	–	0.848	–	0.898	–
[3], partner 0.0625 µg/mL	0.883	–	0.93	–	0.863	–
[3], partner 0.125 µg/mL	0.885	–	0.934	–	0.894	–
[3], partner 0.25 µg/mL	0.868	–	0.9	–	0.929	–
[3], partner 0.5 µg/mL	0.862	–	0.852	–	0.908	–
[3], partner 1 µg/mL	0.949	–	0.959	–	0.971	–
[3], partner 2 µg/mL	0.862	–	0.848	–	0.855	–
[4], partner 0.15 µg/mL	–	≥ 1	–	≥ 1	–	0.975
[4], partner 0.3 µg/mL	–	≥ 1	–	≥ 1	–	0.948

Conditions	Bliss interaction score
[5]	0.0473
[6]	0.0744
[7]	0.0334
[8]	-0.0275

C[n+]1ccc(-c2cc[n+](C)cc2)cc1 [Paraquat] + CCN(CC)CCOC(=O)c1ccc(N)cc1 [Procaine]
fitness
Conditions	first compound 1.25 µg/mL	first compound 1.5 µg/mL	first compound 2.5 µg/mL	first compound 3 µg/mL	first compound 5 µg/mL	first compound 6 µg/mL
[1], partner 85.5 µg/mL	0.954	–	0.877	–	0.813	–
[1], partner 171 µg/mL	0.943	–	0.935	–	0.837	–
[1], partner 342 µg/mL	0.89	–	0.89	–	0.812	–
[2], partner 85.5 µg/mL	0.906	–	0.944	–	0.95	–
[2], partner 171 µg/mL	0.936	–	0.981	–	0.996	–
[2], partner 342 µg/mL	0.966	–	0.97	–	0.98	–
[3], partner 85.5 µg/mL	0.959	–	0.917	–	0.948	–
[3], partner 171 µg/mL	0.956	–	0.909	–	0.951	–
[3], partner 342 µg/mL	0.944	–	0.947	–	0.937	–
[4], partner 85.5 µg/mL	–	≥ 1	–	≥ 1	–	≥ 1
[4], partner 171 µg/mL	–	≥ 1	–	0.998	–	≥ 1
[4], partner 342 µg/mL	–	0.988	–	0.971	–	0.951

Conditions	Bliss interaction score
[5]	0.0621
[6]	0.0567
[7]	0.0516
[8]	0.0315

C[n+]1ccc(-c2cc[n+](C)cc2)cc1 [Paraquat] + CN1C2=CC=CC=C2N=C3C1=CC=CC3=O [Pyocyanin]
fitness
Conditions	first compound 1.25 µg/mL	first compound 1.5 µg/mL	first compound 2.5 µg/mL	first compound 3 µg/mL	first compound 5 µg/mL	first compound 6 µg/mL
[1], partner 1.25 µg/mL	0.918	–	0.903	–	0.802	–
[1], partner 2.5 µg/mL	0.866	–	0.838	–	0.673	–
[1], partner 5 µg/mL	0.721	–	0.707	–	0.534	–
[2], partner 1.25 µg/mL	0.918	–	0.931	–	0.905	–
[2], partner 2.5 µg/mL	0.891	–	0.879	–	0.858	–
[2], partner 5 µg/mL	0.627	–	0.647	–	0.595	–
[3], partner 1.25 µg/mL	0.838	–	0.799	–	0.825	–
[3], partner 2.5 µg/mL	0.821	–	0.776	–	0.751	–
[3], partner 5 µg/mL	0.401	–	0.382	–	0.366	–
[4], partner 0.325 µg/mL	–	≥ 1	–	≥ 1	–	≥ 1
[4], partner 0.65 µg/mL	–	0.954	–	0.97	–	0.955

[4], partner 1.3 µg/mL, one replicate
Conditions	fitness
first compound 1.5 µg/mL	0.528
first compound 3 µg/mL	0.597
first compound 6 µg/mL	0.601

Conditions	Bliss interaction score
[5]	-0.0646
[6]	-0.0554
[7]	0.0765
[8]	-0.0783
